# Test results reported in patent publication US20230083973A1, “SUBSTITUTED CYCLOPROPYL-2,2'-BIP[…], ANALOGUES THEREOF, AND METHODS USING SAME” (priority 2019, published 2023).
# System: HBsAg
# Experiment: HBsAg assay: inhibition of HBsAg in HepG2.2.15 cells (chemiluminescence immunoassay of supernatant)
# Format: cell-based, hepatitis B virus
# Settings: Hepatitis B virus, HepG2.2.15, 144 h, read-out: sAg EC50, HepG2.2.15 cells; HBsAg in supernatant at day 6 after exposure to compound; 0.5% DMSO
# Description: Inhibition of HBsAg was determined in HepG2.2.15 cells. Cells were maintained in culture medium containing 10% fetal calf serum, […], Glutamine, penicillin/streptomycin. Cells were seeded in 96-well collagen-coated plate at a density of 30,000 cells/well. Serially diluted compounds were added to cells next day at the final DMSO concentration of 0.5%. Cells were incubated with compounds for 2-3 days, after which medium was removed. Fresh medium containing compounds was added to cells for additional 3-4 days. At day 6 after exposure of compounds, supernatant was collected, the HBsAg immunoassay (microplate-based chemiluminescence immunoassay kits, CLIA, Autobio Diagnosics Co., Zhengzhou, China, Catalog # CL0310-2) was used to determine the level of HBsAg according to manufactory instruction. Dose-response curves were generated and the EC50 value (effective concentrations that achieved 50% inhibitory effect) were determined using XLfit software. In addition, cells were seeded at a density of 5,000 cells/well for determination of cell viability in the presence and absence of compounds by using CellTiter-Glo reagent (Promega).
# Table 1 illustrates EC50 values obtained by the HBsAg assay for selected compounds.
row,SMILES,EC50
1,"COc1cc(C2CN(c3cc([C@@H]4C[C@H]4c4cnc(-c5ncccn5)nc4)cc(F)c3F)C2)cc(F)c1F (relative stereo) [Example 213, trans-5-(2-(3-(3-(3,4-Difluoro-5-methoxyphenyl)azetidin-1-yl)-4,5-difluorophenyl)cyclopropyl)-2,2′-bipyrimidine]",0.073 µM
2,"COc1cc(OC(F)(F)F)cc([C@@H]2C[C@H]2c2cnc(-c3ncccn3)nc2)c1 (relative stereo) [Example 164, trans-5-(2-(3-Methoxy-5-(trifluoromethoxy)phenyl)cyclopropyl)-2,2′-bipyrimidine]",0.48 µM
3,"Fc1ccc([C@@H]2C[C@H]2c2cnc(-c3ncccn3)nc2)c2cccnc12 (relative stereo) [Example 172, trans-5-(2-([2,2′-Bipyrimidin]-5-yl)cyclopropyl)-8-fluoroquinoline]",0.25 µM
4,"COCCCn1ncc2c([C@@H]3C[C@H]3c3cnc(-c4ncccn4)nc3)cc(F)c(F)c21 (relative stereo) [Example 264, trans-4-(2-([2,2′-Bipyrimidin]-5-yl)cyclopropyl)-6,7-difluoro-1-(3-methoxypropyl)-1H-indazole]",0.004 µM
5,"Fc1ccc([C@@H]2C[C@H]2c2cnc(-c3ncccn3)nc2)c2ccccc12 (relative stereo) [Example 168, trans-5-(2-(4-Fluoronaphthalen-1-yl)cyclopropyl)-2,2′-bipyrimidine]",0.036 µM

# Same assay, conditions: read-out: sAg EC50; HepG2.2.15 cells; HBsAg in supernatant at day 6 after exposure to compound; 0.5% DMSO
row,SMILES,EC50
1,"COc1cc(C2CC2c2cnc(-c3ncccn3)nc2-c2ccccc2)ccc1F (single isomer, unassigned) [Example 143, trans-5-(2-(4-Fluoro-3-methoxyphenyl)cyclopropyl)-4-phenyl-2,2′-bipyrimidine]",0.12 µM
2,"CO[C@@H]1CCN(c2cc(C3CC3c3cnc(-c4ncccn4)nc3)cc(F)c2F)C1 (single isomer, unassigned) [Example 97]",0.014 µM
3,"COc1cc(C2CC2c2cnc(-c3ncccn3)nc2)c(C)cc1Cl (single isomer, unassigned) [Example 51, trans-5-(2-(4-Chloro-5-methoxy-2-methylphenyl)cyclopropyl)-2,2′-bipyrimidine]",0.29 µM
4,"CN(C)c1cc(C2CC2c2cnc(-c3ncccn3)nc2)ccc1F (single isomer, unassigned) [Example 63, trans-5-(2-([2,2′-Bipyrimidin]-5-yl)cyclopropyl)-2-fluoro-N,N-dimethylaniline]",0.39 µM
5,"COc1cc(C2CC2c2cnc(-c3ncccn3)nc2)cnc1OC (single isomer, unassigned) [Example 184, trans-5-(2-(5,6-Dimethoxypyridin-3-yl)cyclopropyl)-2,2′-bipyrimidine]",1.1 µM
6,"COc1cc(C2CC2c2cnc(-c3ncccn3)nc2)cc(OC)c1F (single isomer, unassigned) [Example 147, trans-5-(2-(4-Fluoro-3,5-dimethoxyphenyl)cyclopropyl)-2,2′-bipyrimidine]",10 µM
7,"Fc1ccc(C2CC2c2cnc(-c3ncccn3)nc2)cc1OC(F)(F)F (single isomer, unassigned) [Example 40, trans-5-(2-(4-Fluoro-3-(trifluoromethoxy)phenyl)cyclopropyl)-2,2′-bipyrimidine]",0.11 µM
8,"CN(C)C(=O)c1cc(C2CC2c2cnc(-c3ncccn3)nc2)ccc1Cl (single isomer, unassigned) [Example 204, trans-5-(2-([2,2′-Bipyrimidin]-5-yl)cyclopropyl)-2-chloro-N,N-dimethylbenzamide]",4 µM
9,"Fc1cn(-c2cc(C3CC3c3cnc(-c4ncccn4)nc3)cc(F)c2F)cc1F (single isomer, unassigned) [Example 258, trans-5-(2-(3-(3,4-Difluoro-1H-pyrrol-1-yl)-4,5-difluorophenyl)cyclopropyl)-2,2′-bipyrimidine]",0.014 µM
10,"Oc1cnn(-c2cc(C3CC3c3cnc(-c4ncccn4)nc3)cc(F)c2F)c1 (single isomer, unassigned) [Example 260, trans-1-(5-(2-([2,2′-Bipyrimidin]-5-yl)cyclopropyl)-2,3-difluorophenyl)-1H-pyrazol-4-ol]",0.67 µM
